From paper PMC6389950, “Small Peptide Ligands for Targeting EGFR in Triple Negative Breast Cancer Cells” (Scientific Reports, 2019)
Values joined by “and” are separate entries in the source; they are usually repeats but may differ in a detail not shown here. Identical values can stand only once.

Legend:
Type in all cases: cell-based
MCF-10A = test: Peptide array-whole cell binding assay; details: non-tumorigenic cells; peptide conjugated to cellulose membrane (amino-PEG500); cells 75 × 10^3 cells/mL, 37 °C, 4 h; CyQUANT fluorescence relative to peptide 1; spots in duplicate
From the text: (§1) Peptide array on the cellulose membrane was used to evaluate the binding of each peptide to different cell lines. The amino functionalized cellulose membrane provided by Intavis is acid hardened providing high stability at pH range from 1–14, permitting its use in acidic or basic conditions while maintaining membrane integrity. The PEG linker on membrane surface functions as a hydrophilic spacer between the peptide and the solid surface (membrane) reducing background signal. Cell lines were carefully selected for screening peptides as our goal here is to screen peptides with high binding/uptake by the TNBC cells. […] EGFR is overexpressed by a number of TNBC cells such as MDA-MB-468 (obtained from primary tumor source) and MDA-MB-231 (from metastasis cancer tissue)[13],[14]. While other TNBC cells like MDA-MB-436 (obtained from metastasis cancer tissue) are known to express low levels of EGFR. Non-tumorigenic epithelial MCF10A and MCF12A cells derived from the breast tissue also express low levels of EGFR[14],[34]. We selected two TNBC cell lines with relatively high expression of EGFR expression (MDA-MB-468/231) and a TNBC cell line with low level of EGFR expression (MDA-MB-436) for the peptide array screening experiments. In addition, non- tumorigenic cell line, MCF-10A was used for comparison. These four cell lines were allowed to bind the membrane by seeding the cells on the membrane and the bound cells were labeled with a fluorescent dye CyQUANT.
(§2) For the binding assay, the peptide array was incubated with the cells in sequential steps as described previously. Briefly peptide array membrane was dipped in ethanol for 30 s to remove any precipitation on it, followed by dipping in sterile PBS (pH 7.4) for another 30 min. The cells (75 × 10^3 cells/mL) were seeded directly on the membrane in a sterile plate and incubated at 37 °C for 4 h. The unbound cells were washed out with sterile PBS (pH 7.4). Thereafter the membrane was placed in a sealed bag and transferred to −80 °C freezer for 2 h. Subsequently it was defrosted at room temperature and treated with CyQUANT solution. The CyQUANT concentration was optimized based on the manufacturer’s protocol and preliminary experiments. Membrane was incubated at 37 °C for 30 min with the dye. After washing with sterile PBS and air drying using blow dryer, the membrane was scanned using Bio-rad chemidoc imager with image lab software. The settings were adjusted based on the excitation (465 nm) and emission (535 nm) wavelengths of CyQUANT dye. Epi Blue was selected for the light source (455–485 nm) and filter number 4 (blue filter, 518–546 nm) was employed. The fluorescence intensity of cancer cells read using chemidoc imager was normalized using the non-cancer cell fluorescence intensity. Eventually relative fluorescence was assessed to select peptides with high affinity to cancer cells and low or minimal binding to normal cells.

MDA-MB-231 [1] = test: Peptide array-whole cell binding assay; details: peptide conjugated to cellulose membrane (amino-PEG500), no free C-terminus; cells 75 × 10^3 cells/mL, 37 °C, 4 h; CyQUANT fluorescence relative to peptide 1; spots in duplicate
From the text: as §1, §2

MDA-MB-436 [2] = test: Peptide array-whole cell binding assay; details: peptide conjugated to cellulose membrane (amino-PEG500), no free C-terminus; cells 75 × 10^3 cells/mL, 37 °C, 4 h; CyQUANT fluorescence relative to peptide 1; spots in duplicate
From the text: as §1, §2

MDA-MB-468 [3] = test: Peptide array-whole cell binding assay; details: peptide conjugated to cellulose membrane (amino-PEG500), no free C-terminus; cells 75 × 10^3 cells/mL, 37 °C, 4 h; CyQUANT fluorescence relative to peptide 1; spots in duplicate
From the text: as §1, §2

MDA-MB-231 [4] = test: In vitro cellular uptake of FITC-labeled peptides by FACS; details: soluble FITC-β-alanine-labeled peptide 1 µM, 30 min, 37 °C, FBS free media, 10^5 or 10^6 cells/well, MFI of FITC positive cells, three independent experiments ± SD
From the text: (§3) Flow cytometry was employed to determine the cellular uptake of selected six peptides (1, 4, 22, 23, 26, and 27). As opposed to the membrane bound (conjugated) peptide in library screening, the peptides used here were soluble (or free) FITC-labeled peptides. Peptides were labeled with FITC in the N-terminal and a β-alanine residue was used as a spacer between the FITC and the peptide sequence. The same three TNBC cells lines (MDA-MB-468, MDA-MB-231 and MDA-MB-436) used for peptide array screening were used here as well. Peptides 1 and 4 were used as controls. […] Peptide 4 was included in this experiment to compare the uptake of this keratin 1 binding peptide with the EGFR binding peptides. Peptides 22, 23, 26, and 27 were identified as the best EGFR binding peptides from the library screening.
(§4) Fluorescence-activated cell-sorting (FACS) analysis was used to check the uptake of the FITC-peptides. The stock solution for the FITC-peptides (100 μM) was prepared by dissolving the peptides in sterile water/10% DMSO. MDA-MB-231, MDA-MB-468 and MDA-MB-436 cells were seeded in 6-well plates with 10^6/10^5 cells/well containing 3 mL media and the plates were incubated at 37 °C overnight. The following day, the media was replaced with fresh FBS free media (1 mL) containing FITC-labeled peptide (1 µM), and further incubated at 37 °C for 30 min. Thereafter the media was removed and the cells were washed with cold PBS to remove any remaining peptide. Adequate trypsin was added to each well followed by 3–5 min incubation at 37 °C. Trypsin was immediately neutralized by adding media and the cell suspension was transferred into centrifuge tubes. The cells were separated and washed twice with FACS sheath fluid. The control cells were treated similarly but without peptide. Two wells were assigned for each peptide and each well sample was read twice in FACS machine. The experiment was repeated once. MFI represents the average of all wells for each peptide.

MDA-MB-436 [5] = test: as above; details: soluble FITC-β-alanine-labeled peptide 1 µM, 30 min, 37 °C, FBS free media, 10^5 or 10^6 cells/well, MFI of FITC positive cells, three independent experiments ± SD
From the text: as §3, §4

MDA-MB-468 [6] = test: as above; details: soluble FITC-β-alanine-labeled peptide 1 µM, 30 min, 37 °C, FBS free media, 10^5 or 10^6 cells/well, MFI of FITC positive cells, three independent experiments ± SD
From the text: as §3, §4

Substance | Relative Cell Adhesion MCF-10A (MCF-10A) | Relative Cell Adhesion MDA-MB-231 (MDA-MB-231 [1]) | Relative Cell Adhesion MDA-MB-436 (MDA-MB-436 [2]) | Relative Cell Adhesion MDA-MB-468 (MDA-MB-468 [3]) | Mean Fluorescence Intensity ± SD MDA-MB-231 (MDA-MB-231 [4]) | Mean Fluorescence Intensity ± SD MDA-MB-436 (MDA-MB-436 [5]) | Mean Fluorescence Intensity ± SD MDA-MB-468 (MDA-MB-468 [6])
AHWYGYTPQNVI [Peptide 6] | 1.1 | 1.3 | 1.0 | 1.2 | – | – | –
FHWYGYTPQNVI [Peptide 28] | 1.2 | 1.5 | 0.8 | 1.2 | – | – | –
HWYGYTPQNVI [Peptide 20] | 1.2 | 1.5 | 1.0 | 1.2 | – | – | –
Peptide 2: scrambled negative control sequence WQTNYIHPYVYG | 1.0 | 1.2 | 1.1 | 1.1 | – | – | –
Peptide 4: positive control peptide p160, VPWXEPAYQRFL, binds keratin 1 [reference compound] | 1.2 | 1.3 | 1.1 | 1.1 | 4791 ± 354 | 305 ± 58 | 23741 and 23741 ± 3068
WXEAAYQRFL [Peptide 5, positive control, peptide 18 from a previous study, WXEAAYQRFL, reference compound] | 1.7 | 1.7 | 1.8 | 1.3 | – | – | –
WYGYTPQNVI [Peptide 21] | 1.2 | 1.9 | 1.0 | 1.4 | – | – | –
YAWYGYTPQNVI [Peptide 7] | 1.0 | 1.1 | 1.0 | 1.1 | – | – | –
YGPWYNHYITQV [Peptide 3] | 1.0 | 1.1 | 1.1 | 1.0 | – | – | –
YHAYGYTPQNVI [Peptide 8] | 0.9 | 1.0 | 0.9 | 0.8 | – | – | –
YHWAGYTPQNVI [Peptide 9] | 1.0 | 1.4 | 1.2 | 1.3 | – | – | –
YHWFGYTPQNVI [Peptide 29] | 1.1 | 1.7 | 1.1 | 1.2 | – | – | –
YHWYAYTPQNVI [Peptide 10] | 1.1 | 1.5 | 1.2 | 1.3 | – | – | –
YHWYGATPQNVI [Peptide 11] | 1.0 | 1.3 | 1.0 | 1.2 | – | – | –
YHWYGFTPQNVI [Peptide 30] | 1.0 | 1.5 | 0.9 | 1.3 | – | – | –
YHWYGYAPQNVI [Peptide 12] | 1.1 | 1.3 | 1.0 | 1.0 | – | – | –
YHWYGYTAQNVI [Peptide 13] | 1.1 | 1.5 | 1.1 | 1.3 | – | – | –
YHWYGYTPANVI [Peptide 14] | 1.2 | 1.7 | 1.2 | 1.4 | – | – | –
YHWYGYTPKNVI [Peptide 26] | 0.8 | 1.6 | 1.0 | 1.3 | 1877 ± 67 | 16 ± 18 | 6457 ± 557
YHWYGYTPQAVI [Peptide 15] | 1.1 | 1.6 | 0.9 | 1.2 | – | – | –
YHWYGYTPQDVI [Peptide 23] | 1.4 | 2.8 | 1.0 | 1.6 | 1631 ± 110 | 36 ± 14 | 4661 ± 883
YHWYGYTPQKVI [Peptide 27] | 1.0 | 1.8 | 1.0 | 1.2 | 1683 ± 163 | 21 ± 17 | 5248 ± 407
YHWYGYTPQN [Peptide 19] | 1.1 | 2.0 | 1.1 | 1.3 | – | – | –
YHWYGYTPQNAI [Peptide 16] | 1.2 | 1.4 | 1.0 | 1.1 | – | – | –
YHWYGYTPQNV [Peptide 18] | 1.2 | 1.9 | 1.3 | 1.4 | – | – | –
YHWYGYTPQNVA [Peptide 17] | 1.2 | 1.6 | 1.2 | 1.4 | – | – | –
YKWYGYTPQNVI [Peptide 24] | 1.0 | 1.4 | 1.0 | 1.1 | – | – | –
YRWYGYTPQNVI [Peptide 25] | 1.2 | 1.9 | 1.0 | 1.4 | – | – | –
